SMILES strings stand for the structures. Values after ≈ are worked out from the molar mass of the structure shown.

This assay concerns Trypanosoma cruzi. In words: Growth inhibitory activity against Trypanosoma cruzi (Epimastigote). The class given is functional, organism-based.
One may read the IC50 as the concentration that gives 50% inhibition. Read a low IC50 as inhibition by little substance. With `CCCOC(=O)NCCOc1ccc(C[C@@H]2CCCC[C@H]2O)cc1`, the IC50 is 37.3 µg/mL (≈ 111 µM). To `CCCOC(=O)NCCOc1ccc(C[C@@H]2CCCCC23OCCO3)cc1` belongs greater than 200 µg/mL; to `CCCOC(=O)NCCOc1ccc(C[C@@H]2CCCC[C@@H]2O)cc1`, 45.7 µg/mL (≈ 136 µM); to `CCOC(=O)NCCOc1ccc(C[C@@H]2CCCC[C@H]2O)cc1`, 62.3 µg/mL (≈ 194 µM).

Compound `C#CCOC(=O)NCCOc1ccc(C[C@@H]2CCCC[C@H]2O)cc1` displayed an IC50 greater than 100 µg/mL. To `CC(=O)N1CCN(c2ccc(OC[C@H]3CO[C@](Cn4ccnc4)(c4ccc(Cl)cc4Cl)O3)cc2)CC1` [KETOCONAZOLE] belongs 1.7 µg/mL (≈ 3.2 µM); to `CC(C)OC(=O)NCCOc1ccc(C[C@@H]2CCCCC23OCCO3)cc1`, 145 µg/mL (≈ 384 µM). Take `COC(=O)NCCOc1ccc(C[C@@H]2CCCC[C@H]2O)cc1`: the IC50 was greater than 200 µg/mL.

With `CC(C)OC(=O)NCCOc1ccc(C[C@@H]2CCCC[C@H]2O)cc1`, inhibition was half-maximal at 194 µg/mL (≈ 578 µM) (IC50).
